Reference: patent publication US20130209441A1, “PROCESS FOR INHIBITION OF CEREBRAL DAMAGE ASSOCIATED WITH ISCHEMIA BY ANTHOCYANINS AND ANTHOCYANIDINS” (priority 2012, published 2013)

Columns and labels:
[1] = tested on: pMCAO mice; test: Mouse model of permanent middle cerebral artery occlusion (pMCAO): infarct volume (TTC staining) and 18-point neurological score at 24 h; format: in vivo; conditions: 24 h after pMCAO, vs vehicle
Description: C3G is isolated from Prunus cerasus fruits as previously described is dissolved in 0.9% normal saline (NS) and is administered by oral gavage to mice at 1-h before induction of pMCAO. Mice are randomly distributed into […] and treated with vehicle (n=10), or 1 mg/kg (n=8), 2 mg/kg (n=10), and 5 mg/kg (n=9) of C3G. The doses chosen in the present study are based on previous reports. Animals are euthanized at 24 h following pMCAO and infarct volumes are determined.
To evaluate the effect of a delayed treatment at 3 h following pMCAO, mice are randomly assigned to vehicle (n=11), or 2 mg/kg of C3G administered orally at 3 h after pMCAO supplemented by two additional doses of 2 mg/kg of C3G 3 h apart. […] Animals are euthanized at 24 h following pMCAO and infarct volumes and neurological outcomes are determined.
Neurological assessment of experimental mice is performed according to an 18 point-based scale at 1 h before induction of pMCAO and at 24 h following surgery. Brains are immediately removed following neurological assessment, rinsed in cold saline solution, cut into 1-mm-thick coronal sections, and processed for 2% 2,3,5-triphenylterazolium chloride (TTC) staining as previously described. The infarct volumes from individual sections are then summed to determine the total brain infarct volume and adjusted for edema (corrected infarct volume).
All data are expressed as mean values±S.E.M. The degree of statistical significance between groups is determined on the basis of Student t-test, One-way ANOVA test, followed by post hoc Fisher LSD test, and Kruskal-Wallis rank test. SigmaStat 3.0 software (SYSTAT Software Inc., Point Richmond, Calif.) is used to carry out the analysis. Statistical significance is defined at p<0.05.

[2] = tested on: superoxide; test: In situ detection of brain superoxide by dihydroethidium (DHE) fluorescence in pMCAO mice; format: in vivo, mouse; conditions: pretreatment 2 mg/kg orally; 24 h after pMCAO; vs vehicle, p<0.05
Description: Measurement of superoxide is performed in situ by superoxide-selective oxidative fluorescent dye dihydroethidium cell membranes (DHE) as previously described in [3]. DHE is freely permeable across cell membranes and fluoresces red when oxidized to ethidium bromide by superoxide. Unfixed frozen brain sections (30 um) are placed on glass slides and submerged in 10^−6 mol/L DHE (Sigma) in phosphate buffered saline (PBS) buffer, pH 7.4 and incubated at 37° C. for 30 min in a dark humidified container. Fluorescence in ischemic regions of brain sections is then detected by a Zeiss 210 confocal microscope with a 590-nn long-pass filter. The intensity of the fluorescence is analyzed and quantified by densitometry (NIH Image software, version 1.37). The study included three groups (sham-operated, pMCAO with vehicle-treated, and pMCAO with 2 mg/kg of CG-treated mice; (n=4). Four brain sections of each mouse and five fields in each section are measured to calculate mean levels of the brain superoxide. Mitochondria are prepared from adult mouse brains (6-8 weeks old) by using the Percoll gradient method, as previously described. After decapitation, the brain is quickly removed and washed in the isolation buffer (300 mM sucrose, 0.1 mM EGTA, 10 mM HEPES, pH 7.4). The brain is homogenized in 15 ml of buffer by using hand-held glass Potter-Elvehjem homogenizer with PTFE pestle. […]

[3] = tested on: cyt c release from isolated mitochondria; test: Cyt c release from isolated mouse brain mitochondria (immunoblot of supernatant); format: biochemical; conditions: for cyt c release in response to Ca2+: Ca2+ 100 μM stimulation
Description: Measurement of superoxide is performed in situ by superoxide-selective oxidative fluorescent dye dihydroethidium cell membranes (DHE) as previously described in [3]. DHE is freely permeable across cell membranes and fluoresces red when oxidized to ethidium bromide by superoxide. Unfixed frozen brain sections (30 um) are placed on glass slides and submerged in 10^−6 mol/L DHE (Sigma) in phosphate buffered saline (PBS) buffer, pH 7.4 and incubated at 37° C. for 30 min in a dark humidified container. Fluorescence in ischemic regions of brain sections is then detected by a Zeiss 210 confocal microscope with a 590-nn long-pass filter. The intensity of the fluorescence is analyzed and quantified by densitometry (NIH Image software, version 1.37). The study included three groups (sham-operated, pMCAO with vehicle-treated, and pMCAO with 2 mg/kg of CG-treated mice; (n=4). Four brain sections of each mouse and five fields in each section are measured to calculate mean levels of the brain superoxide. Mitochondria are prepared from adult mouse brains (6-8 weeks old) by using the Percoll gradient method, as previously described. After decapitation, the brain is quickly removed and washed in the isolation buffer (300 mM sucrose, 0.1 mM EGTA, 10 mM HEPES, pH 7.4). The brain is homogenized in 15 ml of buffer by using hand-held glass Potter-Elvehjem homogenizer with PTFE pestle. After 5 strokes, the cell debris and nuclei are centrifuged at 1330×g for 5 min. The supernatant is further centrifuged at 21,200×g for 10 min. Mitochondrial fraction is resuspended in 15% Percoll solution diluted in the isolation buffer and layered on top of a discontinuous Percoll gradient of 25/40%. The density gradient is centrifuged at 30,700×g for 10 min and mitochondria are collected from the interface between 25 and 40% Percoll solution, transferred to a new tube, and washed in 10 mL of isolation buffer by centrifugation at 6700×g for 10 min. The resulting pellet is suspended in the isolation buffer without EGTA and further diluted to 2 mg/mL in assay buffer for the cyt c release assay. 50 μL of mitochondria are then mixed with buffer or reagents in a final reaction volume of […].
The assay buffer contains 125 mM KCI, 2 mM KH2PO4, 4 mM MgCl2 at pH 7.4, and 3 mM ATP, 0.8 mM ADP, 5 mM succinate and 2 μM rotenone for respiration. Mitochondrial suspensions diluted in the assay buffer are exposed to Ca^2+ (100 μM), S-nitrosoglutathione (GS—NO, 50 μM for nitric oxide generation) or H2O2 (50 μM for oxidative stress) in 10 min and centrifuged sat 12,000×g in 5 min. The supernatant is collected and 15 μL of aliquots are run on a SDS-PAGE gel to detect the release of cyt c by the immunoblotting assay. […]

[4] = tested on: AIF release from isolated mitochondria; test: AIF release from isolated mouse brain mitochondria; format: biochemical; conditions: compound 100 μM
Description: Mitochondria are prepared from mouse brains using flowing differential centrifugation procedures at 4° C. described previously. Homogenation buffer (50 μl) containing the prepared mitochondrial pellet is incubated with 25 μl of C3G at the desired concentration and the buffer added to achieve the final volume of 100 μl. The AIF release is then assessed in the presence of 100 μM of C3G in response to stimulation by GS-NO (50 μM) and H2O2 (50 μM).

## OC[C@H]1O[C@@H](Oc2cc3c(O)cc(O)cc3[o+]c2-c2ccc(O)c(O)c2)[C@H](O)[C@@H](O)[C@@H]1O [C3G, cyanidin-3-O-glucoside]
[1]; 2 mg/kg oral gavage 1 h before pMCAO
  reduction of infarct volume: 27%
[1]; 5 mg/kg oral gavage 1 h before pMCAO
  reduction of infarct volume: 30%
[1]; delayed treatment: 2 mg/kg orally at 3 h after pMCAO plus two additional 2 mg/kg doses 3 h apart
  reduction in infarct size: 25%
[1]; pretreatment 2 mg/kg orally
  neurological performance (18-point score): statistically significant better neurological performance
[1]; pretreatment 5 mg/kg orally
  neurological performance (18-point score): statistically significant better neurological performance
[1]; treatment 2 mg/kg orally at 3 h after onset of ischemia plus two additional doses
  neurological functional performance (18-point score): significantly better
[2]
  fluorescent density of brain superoxide in situ: significantly suppressed
[3]; compound 1 μM
  cyt c release in response to Ca2+: no effect
[3]; compound 100 μM
  cyt c release in response to Ca2+: did not prevent
[3]; GS-NO 50 μM oxidative stress, compound 100 μM
  cyt c release in response to GS-NO: did not prevent
[3]; H2O2 50 μM oxidative stress, compound 100 μM
  cyt c release in response to H2O2: did not prevent
[4]; GS-NO 50 μM stimulation
  AIF release in response to GS-NO: partially prevented
[4]; H2O2 50 μM stimulation
  AIF release in response to H2O2: partially prevented
